Measured values as given in patent US20200345637A1, “SUSPENSION COMPOSITIONS OF MULTI-TARGET INHIBITORS” (AIVIVA BIOPHARMA, INC., priority 2018, published 2020).
In brackets after ≈: the same amount, converted by molar mass. Several values for one entry are separate records, joined by “and”; a condition that tells them apart may be missing. Equal entries are not always repeated. Where two headings read alike, the source gives them in different places.

How the values were obtained:
[1] = rat, in vivo
Description: (§2) This study investigated the pharmacokinetics and distribution of axitinib, sorafenib, pirfenidone, and riociguat after intraprostate injections in Wistar rats (n=6-7 per treatment group). Axitinib, sorafenib and riociguat, as 1% w/w suspension, and pirfenidone as 2.5% suspension were administered as single intraprostate injection (a total of 0.2 mL) on Days 15 and 29 in this 42-day study.

[2] = Aqueous solubility of multi-target inhibitors; type: physicochemical; details: for solubility: aqueous (not further specified)
Excerpt: Non-limiting examples of the useful multi-target inhibitors and their physicochemical forms are given in Table 1 with aqueous solubility information.

[3] = rabbit, in vivo
Description: (§3) This study evaluated the local tolerance of vehicle, axitinib, pirfenidone, sorafenib and lenvatinib and ocular distribution of axitinib, sorafenib and lenvatinib (0.3% w/w) when administered by topical ocular instillation in the eyes of New Zealand white rabbits (n=6 per group). […] On Dosing Day 5, the animals were sacrificed and eyes were enucleated. Ocular and plasma concentrations of select compounds were measured by LC-MS/MS.

[4] = Suspension physical testing: particle size, pH, osmolality, syringeability; type: physicochemical; design: API Raw Material PSD D50 / Formulated Suspension Particle size distribution D50 / API Raw Material PSD D90 / Formulated Suspension Particle size distribution D90: unit not given here; details: for Formulated Suspension Syringeability: needle gauge passed
Excerpt: (§1) Examples 1-3 depict the results of physical testing of some subject formulations.

[5] = Pharmacokinetics and distribution after intraprostate injections in rats (Example 8); details: for Plasma concentrations Mean: intraprostate injection
Description: as §2

[6] = Terminal sterilization and stability assay of formulated suspension; type: physicochemical; details: for Assay (% of labeled claim) of Formulated Suspension, 4 months (40° C./75% RH) / Assay (% of labeled claim) of Formulated Suspension, 6 weeks (40° C./75% RH) / Assay (% of labeled claim) of Formulated Suspension, Initial: Gamma irradiation
Excerpt: as §1

[7] = systemic; literature or US label; cited from earlier work
[8] = Skin pharmacokinetics after single intradermal injection in minipigs; details: over 28 days
Description: Pharmacokinetics of axitinib and nintedanib was investigated after a single intradermal injection of 0.1% and 1% suspensions to the dorsum of Yucatan minipigs. The dosing volume was 0.1 mL for each injection. Concentrations of drugs in the epidermis and dermis over 28 days at the injection site and at 2 cm away from the injection site were measured using LCMS/MS method.

[9] = tested on: linear incision wound sites; assay: Intradermal injection along linear incision wounds, histological evaluation; type: in vivo, minipigs; details: for granulation tissue formation compared to vehicle treated control wounds / presence of myofibroblasts compared to vehicle treated control wounds: 2% suspension (sorafenib 1% suspension); for SMA staining / dermis fibrin / dermis fibroplasia / dermis provisional matrix / epidermis hyperplasia / inflammation / subcutis fibroplasia / subcutis mixed cell infiltrate: microscopic grade over 29 days
Description: The purpose of this study was to evaluate the suspension formulation when administered via intradermal injection with axitinib, nintedanib, sorafenib, and lenvatinib to the dorsal skin along linear incisions of minipigs.
Four male minipigs were dosed. Animals were dosed once via intradermal injection along the edges of each of 10 wound sites for each animal (5 wounds on each side of the dorsum [perpendicular to the spine], approximately 3 cm in length and 3 cm distance from the spine). Axitinib, nintedanib, lenvatinib, and the vehicle control article were administered via eight 0.1 mL intradermal injections around each respective wound site (one injection/cm on both sides of the wound), for a total volume of 0.8 mL/wound site. Sorafenib was administered via the same method at a volume of 0.2 mL/injection, for a total volume of 1.6 mL/wound site. The vehicle control article was Vehicle for Test Articles axitinib, nintedanib, lenvatinib, and sorafenib.
A generalized measure of inflammation, including inflammatory cell infiltrate, fibrin deposition, fibroplasia, epithelial hyperplasia and areas of tissue necrosis were assessed microscopically. […] For test agent treated wounds, all were graded as slight on Day 4, and there was no consistent difference over time as compared to the control group.

[10] = Local tolerance and ocular distribution, topical instillation three times daily for 5 days
Description: as §3

[11] = two weeks after the second biweekly intraprostate injection

SMILES	drug concentration in prostate [1]	drug release from prostate into systemic circulation [1]	solubility [2] [µg/mL]	API Raw Material PSD D50 [4]	API Raw Material PSD D90 [4]	Formulated Suspension Osmolality [4] [mOsm/kg]	Formulated Suspension Particle size distribution D50 [4]	Formulated Suspension Particle size distribution D90 [4]	Formulated Suspension pH [4]	Formulated Suspension Syringeability [4]	Plasma concentrations Mean ([5]; Study Day 15, 24 h) [ng/mL]	Plasma concentrations Mean ([5]; Study Day 29, 24 h) [ng/mL]	Plasma concentrations Mean ([5]; Study Day 42, 0 h)	Prostate concentrations Mean [5, 11] [µg/g]	Assay (% of labeled claim) of Formulated Suspension, 4 months (40° C./75% RH) [6]	Assay (% of labeled claim) of Formulated Suspension, 6 weeks (40° C./75% RH) [6]	Assay (% of labeled claim) of Formulated Suspension, Initial ([6]; initial)	terminal plasma half-life in man [7] [h]	granulation tissue formation compared to vehicle treated control wounds [9]	presence of myofibroblasts compared to vehicle treated control wounds [9]	other results
CCN(CC)CCNC(=O)c1c(C)[nH]c(/C=C2\C(=O)Nc3ccc(F)cc32)c1C [Sunitinib]	–	–	7 (≈ 17.6 µM)	D50: 25	D90: 52	201	D50: 12	D90: 26	7.6	Pass 25G	–	–	–	–	100.0 % of labeled claim and 95.6 % of labeled claim	98.9 % of labeled claim and 96.5 % of labeled claim	96.7 % of labeled claim and 95.1 % of labeled claim	–	–	–	–
CNC(=O)c1cc(Oc2ccc(NC(=O)Nc3ccc(Cl)c(C(F)(F)F)c3)c(F)c2)ccn1 [regorafenib, Regorafenib]	–	–	–	–	–	–	–	–	–	–	–	–	–	–	–	–	–	28	–	–	–
Cc1ccc(=O)n(-c2ccccc2)c1 [Pirfenidone]	–	–	3000 (≈ 16200 µM)	D50: 57	D90: 74	312	D50: 44	D90: 72	7.6	Pass 23G	0.381	0.454	BLQ	0.014	91.5 % of labeled claim and 94.9 % of labeled claim	89.9 % of labeled claim and 95.7 % of labeled claim	90.9 % of labeled claim and 97.2 % of labeled claim	–	–	–	–

Now from value to compound, other results behind:

drug concentration in prostate [1]	drug release from prostate into systemic circulation [1]	solubility [2] [µg/mL]	API Raw Material PSD D50 [4]	API Raw Material PSD D90 [4]	Formulated Suspension Osmolality [4] [mOsm/kg]	Formulated Suspension Particle size distribution D50 [4]	Formulated Suspension Particle size distribution D90 [4]	Formulated Suspension pH [4]	Formulated Suspension Syringeability [4]	Plasma concentrations Mean ([5]; Study Day 15, 24 h) [ng/mL]	Plasma concentrations Mean ([5]; Study Day 29, 24 h) [ng/mL]	Plasma concentrations Mean ([5]; Study Day 42, 0 h)	Prostate concentrations Mean [5, 11] [µg/g]	SMILES	Assay (% of labeled claim) of Formulated Suspension, 4 months (40° C./75% RH) [6]	Assay (% of labeled claim) of Formulated Suspension, 6 weeks (40° C./75% RH) [6]	Assay (% of labeled claim) of Formulated Suspension, Initial ([6]; initial)	terminal plasma half-life in man [7] [h]	granulation tissue formation compared to vehicle treated control wounds [9]	presence of myofibroblasts compared to vehicle treated control wounds [9]	other results
remained high	prolonged drug release	2 (≈ 5.17 µM)	D50: 5.5	D90: 9.9	206	D50: 5.8	D90: 15.6	7.6	Pass 25G	1.72	1.49	0.33 ng/mL	718	CNC(=O)c1ccccc1Sc1ccc2c(/C=C/c3ccccn3)n[nH]c2c1 [Axitinib]	95.2 % of labeled claim and 100.9 % of labeled claim	97.8 % of labeled claim and 98.5 % of labeled claim	102.0 % of labeled claim and 100.7 % of labeled claim	2 to 5	delay in granulation tissue formation	prolonged presence of myofibroblasts	concentrations in the choroid and retina [3]: significant concentrations; drug concentrations in anterior tissues of conjunctiva, sclera and cornea [3]: high drug concentrations; Assay (% of labeled claim) of Formulated Suspension, 4 months (40° C./75% RH) (bottom) ([6]; Autoclave, bottom, tested at 3 months instead of 4 months, 40° C./75% RH): 103.2 % of labeled claim; Assay (% of labeled claim) of Formulated Suspension, Initial (bottom) ([6]; Autoclave, initial, bottom): 100.1 % of labeled claim; Assay (% of labeled claim) of Formulated Suspension, Initial (top) ([6]; Autoclave, initial, top): 98.7 % of labeled claim; Assay (% of labeled claim) of Formulated Suspension, 4 months (40° C./75% RH) (top) ([6]; Autoclave, top, tested at 3 months instead of 4 months, 40° C./75% RH): 101.2 % of labeled claim; mean concentration in the dermis, 2 cm away from the injection site ([8]; 0.1% intradermal injection): 1.2-8 ng/gm; mean concentration in the epidermis, 2 cm away from the injection site ([8]; 0.1% intradermal injection): 4.5-55.2 ng/gm; mean concentration in the dermis, 2 cm away from the injection site ([8]; 1% intradermal injection): 2.9-150 ng/gm; mean concentration in the epidermis, 2 cm away from the injection site ([8]; 1% intradermal injection): 42.3-723 ng/gm; SMA staining [9]: minimal to moderate; dermis fibrin [9]: slight to moderate; dermis fibroplasia [9]: none to slight; dermis provisional matrix [9]: marked to moderate; epidermis hyperplasia [9]: minimal to slight; inflammation [9]: slight to moderate; subcutis fibroplasia [9]: none to moderate; subcutis mixed cell infiltrate [9]: moderate to minimal; concentration at 5 day of dosing ([10]; New Zealand White, rabbit, plasma, topical, 35 μl eyedrop of 0.3% w/w to the right eye, three times daily): 0.29 ng/mL
remained high	prolonged drug release	8 (≈ 18.9 µM)	D50: 16	D90: 29	201	D50: 9	D90: 17	7.6	Pass 27G	–	–	–	–	COC(=O)N(C)c1c(N)nc(-c2nn(Cc3ccccc3F)c3ncccc23)nc1N [Riociguat]	99.9 % of labeled claim and 99.7 % of labeled claim	98.7 % of labeled claim and 98.0 % of labeled claim	101.9 % of labeled claim and 100.6 % of labeled claim	–	–	–	Prostate concentrations Mean ([1]; male, Wistar, 2 weeks after the second injection): 492 µg/g
–	–	–	D50: 18	D90: 39	216	D50: 11	D90: 20	7.3	Pass 27G	–	–	–	892	CNC(=O)c1cc(Oc2ccc(NC(=O)Nc3ccc(Cl)c(C(F)(F)F)c3)cc2)ccn1.Cc1ccc(S(=O)(=O)O)cc1 [Sorafenib Hemi Tosylate]	99.9 % of labeled claim and 99.6 % of labeled claim	100.7 % of labeled claim and 100.4 % of labeled claim	98.9 % of labeled claim and 101.6 % of labeled claim	–	delay in granulation tissue formation	prolonged presence of myofibroblasts	Aqueous Solubility [2]: 6 µg/mL; drug release from prostate into systemic circulation ([5]; after single intraprostate injections): prolonged drug release; drug concentration in prostate [5, 11]: remained high; SMA staining [9]: slight to minimal; dermis fibrin [9]: minimal to none; dermis fibroplasia [9]: minimal to slight; dermis provisional matrix [9]: slight to none; epidermis hyperplasia [9]: none; inflammation [9]: moderate to minimal; subcutis fibroplasia [9]: minimal to moderate; subcutis mixed cell infiltrate [9]: slight to marked; concentrations in the choroid and retina ([10]; 0.3% w/w topical instillation): significant concentrations; drug concentrations in anterior tissues of conjunctiva, sclera and cornea ([10]; 0.3% w/w topical instillation): high drug concentrations; plasma concentrations, mean (±SD) ([10]; Day 5 of dosing, 0.3% w/w 35 μl eyedrop three times daily): 5.09 (±1.27) ng/mL
